Groups on a side chain read outwards from the residue. No end group written: not given here. Glu2C18 = not defined here
Key:
resting platelets = assay: Binding test to resting platelets (flow cytometry aggregation ratio); format: cell-based; conditions: resting platelets 2.0×10^4/μl, beads 1.0×10^5/μl, 37° C., 30 min
Experimental: (§1) Resting platelets (2.0×10^4/μl) were mixed with 1.0×10^5/μl of each of LB, H12-LB and CGGRGDF-LB [LB bound with a peptide having an RGD sequence (Arg-Gly-Asp)], followed by shaking (37° C., 30 min), and the aggregation ratio in each case was evaluated by flow cytometry. […] Based on this, it was confirmed that H12-LB hardly agglutinate to resting platelets when compared with CGGRGDF-LB.

platelets [1] = assay: Aggregation test with platelets, latex beads as carrier: platelet adhesion on collagen-immobilized surface under flow in thrombocytopenia model blood; format: cell-based; conditions: after 180 seconds
Experimental: (§2) A thrombocytopenia model blood was prepared by passing whole blood-through a leukocyte removing filter for leukocyte depleted preparations (NEOIJ, Nihon Pall) by gravity, and adjusting the platelet concentration to 2.0×10^4/μl by adding platelet rich plasma (PRP) (an automatic blood cell counter K-4500, Sysmex, Kobe).
(§3) H12-LB (1.0×10^5 particles/μl) was added to 5 ml of the thrombocytopenia model blood, allowed to stand (37° C., 10 min), flowed on a collagen-immobilized surface using a pump (rate of shear 150 s^−1), and then observed under a fluorescence microscope or through a CCD camera. An adhesion occupying ratio [surface coverage (hereinafter referred to as “SC”)] of micro particles to each surface was measured using an image analyzer (Argus-50, Hamamatsu Photonics).
Only platelets were subjected to fluorescence labeling [3,3′-dihexyloxacarbocyanine iodide (DiOC6)], and their adhesion behavior was periodically observed. As a result, SC of platelets on the surface increased with the lapse of time and was 3.1±0.4% after 180 seconds (FIG. 1: □, control). […] Thus, when H12-LB was added instead of LB, the platelet adhesion was further amplified than the case of the LB addition, and was 5.1±0.3% after 180 seconds, or amplified about 1.7 times than the control (FIG. 1: ∘).

[2] = test system: platelets activated by adhering to collagen; assay: Adhesion behavior of FITC-labeled latex beads on collagen-immobilized surface under flow in thrombocytopenia model blood; format: cell-based
Experimental: as §2, §3
In addition, the number of H12-LB bound to the surface was inhibited when the platelet concentration was 0.2×10^4/μl (FIG. 2: •), and were hardly seen in the case of LB (FIG. 2: □).

[3] = Retention of H12-PEG-Glu2C18 in phospholipid vesicles (1H-NMR molar ratio after shaking); format: physicochemical; conditions: diluted 30 times with PBS, shaken at 37° C. for 12 hours
Experimental: In this connection, the prepared phospholipid vesicles (H12-PEG vesicles, 1.8 wt %) were diluted 30 times with PBS and shaken at 37° C. for 12 hours, and then the vesicles were precipitated by centrifugation (33000 rpm, 1 h) and dispersed, followed by freeze drying, and the resulting powder was subjected to ^1H-NMR measurement.

platelets [4] = assay: Aggregation test with platelets, vesicles as carrier: platelet adhesion on collagen surface under flow in thrombocytopenic blood; format: cell-based; conditions: for SC of platelets (%): thrombocytopenic blood, platelets 5.0×10^4/μl, collagen surface, shear 150 s^-1, H12-PEG-Glu2C18 0.3 mol %
Experimental: Platelets were fluorescence-labeled with DiOC6, and the H12-PEG(PEG) vesicle (1.5 wt %, 200 μl) was added to 5 ml of the thrombocytopenic blood ([platelets]=5.0×10^4/μl), allowed to stand (37° C., 10 min), allowed to flow on the collagen surface at a rate of shear of 150 s^−1, and then observed under a fluorescence microscope. The SC of platelets on the surface was analyzed by Argus-20. When H12-PEG vesicle (H12-PEG-Glu2C18: 0.3 mol %) or PEG vesicle was added to the thrombocytopenic blood ([platelets]=5.0×10^4/μl) and allowed to flow on the collagen surface, the SC was increased in the H12-PEG vesicle-added system, in comparison with the PEG vesicle-added system (Table 1).

platelets [5] = assay: Interaction with platelets, vesicles as carrier (flow cytometry, PAC-1 and vesicle binding); format: cell-based; conditions: thrombocytopenia plasma, platelets 5.0×10^4/μl, 30 min, 37° C.
Experimental: After 80 μl of thrombocytopenia plasma ([platelets]=5.0×10^4/μl) was prepared, fluorescence-labeled H12-PEG(PEG) vesicles (8.2 μM, 20 μl) or a fluorescence-labeled antibody and H12-PEG(PEG) vesicles (0.082 μM, 20 μl) were added thereto, followed by stirring (30 min, 37° C.). The mixture was subsequently subjected to formaldehyde (3.7%) fixation, diluted 10 times and then measured using flow cytometry.

[6] = molecular target: T1, GPIIb/IIIa on resting platelets (UniProt P08514 32-1039; P05106 27-788, limits assumed); assay: flow cytometry, fluorescence-labeled antibody on platelets, H12-PEG(PEG) vesicles added
T1 construct: whole, on cells; also called resting GPIIb/IIIa; normal platelets

[7] = molecular target: T1, GPIIb/IIIa on resting platelets; assay: flow cytometry, fluorescence-labeled antibody on platelets, PEG vesicles added
[8] = molecular target: T1, GPIIb/IIIa on resting platelets; assay: flow cytometry, fluorescence-labeled antibody on platelets, PBS added
[9] = molecular target: T1, GPIIb/IIIa on resting platelets; assay: flow cytometry, beads (1.0×10^5/µl) mixed with resting platelets (2.0×10^4/µl), 37° C., 30 min
Experimental: as §1, with “(2.0×10⁴/μl)” for “(2.0×10^4/μl)”, “1.0×10⁵/μl” for “1.0×10^5/μl”

T1 sequence (P08514 32-1039 limits assumed, chain 1 of 2): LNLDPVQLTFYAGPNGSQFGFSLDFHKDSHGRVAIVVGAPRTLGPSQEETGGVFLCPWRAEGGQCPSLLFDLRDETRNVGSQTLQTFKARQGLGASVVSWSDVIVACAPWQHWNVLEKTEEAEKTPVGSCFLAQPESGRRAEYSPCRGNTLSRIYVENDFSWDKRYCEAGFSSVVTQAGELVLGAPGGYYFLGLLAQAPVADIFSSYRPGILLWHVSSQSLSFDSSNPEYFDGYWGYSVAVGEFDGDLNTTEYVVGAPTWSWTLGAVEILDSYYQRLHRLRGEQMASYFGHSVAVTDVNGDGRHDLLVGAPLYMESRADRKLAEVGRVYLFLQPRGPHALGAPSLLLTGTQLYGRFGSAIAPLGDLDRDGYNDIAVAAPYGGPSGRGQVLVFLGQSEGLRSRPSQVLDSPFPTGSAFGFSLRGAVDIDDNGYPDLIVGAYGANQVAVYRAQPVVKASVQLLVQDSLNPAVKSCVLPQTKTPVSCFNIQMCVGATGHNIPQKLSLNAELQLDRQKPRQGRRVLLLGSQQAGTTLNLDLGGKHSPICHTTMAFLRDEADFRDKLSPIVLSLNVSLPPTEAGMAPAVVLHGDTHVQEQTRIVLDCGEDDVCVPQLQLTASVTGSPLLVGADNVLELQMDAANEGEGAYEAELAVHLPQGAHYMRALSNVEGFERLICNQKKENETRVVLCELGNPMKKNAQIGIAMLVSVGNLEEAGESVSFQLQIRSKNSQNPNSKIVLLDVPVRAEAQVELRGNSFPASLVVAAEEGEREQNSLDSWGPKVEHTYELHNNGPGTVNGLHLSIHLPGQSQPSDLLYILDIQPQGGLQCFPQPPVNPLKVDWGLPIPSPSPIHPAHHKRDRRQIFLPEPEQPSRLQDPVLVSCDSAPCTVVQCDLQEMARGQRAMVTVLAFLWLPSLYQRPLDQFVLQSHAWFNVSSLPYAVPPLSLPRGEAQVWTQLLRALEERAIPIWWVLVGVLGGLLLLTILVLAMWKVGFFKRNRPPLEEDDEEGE
T1 sequence (P05106 27-788 limits assumed, chain 2 of 2): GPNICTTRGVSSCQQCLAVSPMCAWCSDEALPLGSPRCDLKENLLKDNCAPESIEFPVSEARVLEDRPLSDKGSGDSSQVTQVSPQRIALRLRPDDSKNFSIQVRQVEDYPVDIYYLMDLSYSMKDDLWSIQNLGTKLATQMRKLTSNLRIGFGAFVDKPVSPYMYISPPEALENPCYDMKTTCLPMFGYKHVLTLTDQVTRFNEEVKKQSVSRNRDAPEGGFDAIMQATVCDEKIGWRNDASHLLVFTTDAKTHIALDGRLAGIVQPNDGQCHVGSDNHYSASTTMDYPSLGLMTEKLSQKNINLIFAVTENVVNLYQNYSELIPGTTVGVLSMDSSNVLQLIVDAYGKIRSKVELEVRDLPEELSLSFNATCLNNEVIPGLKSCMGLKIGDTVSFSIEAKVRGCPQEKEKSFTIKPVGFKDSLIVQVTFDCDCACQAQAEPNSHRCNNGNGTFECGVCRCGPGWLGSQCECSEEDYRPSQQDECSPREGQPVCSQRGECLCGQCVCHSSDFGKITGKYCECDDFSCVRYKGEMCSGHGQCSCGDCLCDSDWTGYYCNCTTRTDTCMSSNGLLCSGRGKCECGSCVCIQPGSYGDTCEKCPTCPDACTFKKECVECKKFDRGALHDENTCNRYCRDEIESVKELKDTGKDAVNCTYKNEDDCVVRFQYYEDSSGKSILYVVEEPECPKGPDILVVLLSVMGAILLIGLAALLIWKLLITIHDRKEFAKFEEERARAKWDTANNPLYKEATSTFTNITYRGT

Which “aggregation ratio with resting platelets” value (resting platelets) does the source give for “CGGRGDF-LB: LB bound with a peptide having an RGD sequence (Arg-Gly-Asp) (also: bound to latex beads (LB)) [reference compound]” here?
The value was 2.9 ± 1.3%.

With “H12-LB: Dodecapeptide H12 (SEQ ID NO: 1, via Cys and SPDP linker) coupled to rHSA-adsorbed latex beads of 1 μm diameter (CHHLGGAKQAGDV; cyclised or stapled)” as the molecule, how does the “amplification of platelet adhesion versus control (LB)” value (platelets [1]) read?
Its value is “about 1.7 times”.

What about the “SC (surface coverage) of platelets on collagen surface” value (platelets [1]; shear 150 s^-1, platelets 2.0×10^4/μl, beads 1.0×10^5 particles/μl, DiOC6-labeled platelets) of the same molecule?
Its value is 5.1±0.3%.

And the “aggregation ratio with resting platelets” value (resting platelets)?
The value was “did not show increase”.

And the “number of beads bound to collagen surface” value ([2]; platelet concentration 0.2×10^4/μl (FIG. 2))?
The value was “inhibited”.

What about the “SC of FITC-labeled beads bound to collagen surface” value ([2]; platelets 2.0×10^4/μl, shear 150 s^-1 (FIG. 2)) of the same molecule?
The value was “gradually increased”.

Which “stability: retention of H12-PEG-Glu2C18 in vesicles (molar ratio of DPPC, cholesterol and H12-PEG-Glu2C18)” value [3] does the source give for “H12-PEG vesicle: DPPC/cholesterol vesicle containing H12-PEG-Glu2C18 alone (C([MAL‑PEG3400-Glu2C18])HHLGGAKQAGDV-OH; not fully specified; reading uncertain)” here?
Its value is “not released from the phospholipid vesicles but stably maintained”.

And the “SC of platelets (%)” value (platelets [4])?
Its value is 15.0 ± 5.0%.

Which results are given for “H12-PEG(PEG) vesicle: DPPC/cholesterol vesicle containing PEG-Glu2C18 and H12-PEG-Glu2C18 (CHHLGGAKQAGDV-OH; not fully specified (residue 1))”?
PAC-1 binding (%) (platelets [5]; fluorescence-labeled antibody with vesicles): 3.7 ± 0.4%; vesicle binding (%) (platelets [5]; fluorescence-labeled vesicles): 1.4 ± 0.6%; SC of platelets on collagen surface (platelets [4]; H12-PEG-Glu2C18 modification ratio 0.1 mol % or less (FIG. 6)): almost the same as the case of PEG vesicle; SC of platelets on collagen surface (platelets [4]; H12-PEG-Glu2C18 modification ratio 0.3 mol % or more (FIG. 6)): the effect appears; SC of platelets (%) (platelets [4]): 17.3 ± 1.9%

Which PAC-1 binding (%) [6] does the source give for PAC-1 (antibody) here?
Its PAC-1 binding (%) is 3.7%.

What about the PAC-1 binding (%) [7] of the same molecule?
Its PAC-1 binding (%) is 3.4%.

What about the PAC-1 binding (%) [8] of the same molecule?
Its PAC-1 binding (%) is 3.8%.

B1: CGGRGDF-LB [LB bound with a peptide having an RGD sequence (Arg-Gly-Asp)] (peptide)
peptide: CGGRGDF
modifications: also: bound to latex beads, coupling chemistry not described
notes: Comparison conjugate
For B1, which aggregation ratio [9] is on record?
The aggregation ratio was 2.9%.

From patent publication US20070059376A1, “Peptide conjugate” (priority 2003, published 2007)
